Measured values as given in ChEMBL document CHEMBL5154916, “Multiparameter Optimization of Naphthyridine Derivatives as Selective α5-GABAA Receptor Negative Allosteric Modulators” (J Med Chem, 2022).

Columns and labels:
[1] = biological target: T1, GABA-A receptor; alpha-5/beta-3/gamma-2 (Homo sapiens, UniProt P18507+P28472+P31644); test: Displacement of [3H]Ro151788 from human recombinant alpha5beta3gamma2 GABAA receptor stably expressed in HEK293 cell membrane assessed as inhibition constant by radioligand binding assay; assay type: cell membranes
T1 sequence (P18507 whole entry): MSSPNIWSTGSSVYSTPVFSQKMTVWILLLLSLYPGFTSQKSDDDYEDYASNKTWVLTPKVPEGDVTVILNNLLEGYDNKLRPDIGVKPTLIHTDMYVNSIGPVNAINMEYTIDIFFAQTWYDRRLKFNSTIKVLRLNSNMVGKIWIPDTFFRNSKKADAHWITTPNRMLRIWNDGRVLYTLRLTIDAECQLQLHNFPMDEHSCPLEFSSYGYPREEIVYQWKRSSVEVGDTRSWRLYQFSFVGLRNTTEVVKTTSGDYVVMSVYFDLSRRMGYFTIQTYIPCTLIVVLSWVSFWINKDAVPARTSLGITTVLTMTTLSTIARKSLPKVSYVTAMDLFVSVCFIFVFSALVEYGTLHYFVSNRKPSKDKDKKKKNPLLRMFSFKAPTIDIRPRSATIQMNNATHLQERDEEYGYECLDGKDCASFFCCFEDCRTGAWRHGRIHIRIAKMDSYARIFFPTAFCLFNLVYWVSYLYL
T1 sequence (P28472 whole entry): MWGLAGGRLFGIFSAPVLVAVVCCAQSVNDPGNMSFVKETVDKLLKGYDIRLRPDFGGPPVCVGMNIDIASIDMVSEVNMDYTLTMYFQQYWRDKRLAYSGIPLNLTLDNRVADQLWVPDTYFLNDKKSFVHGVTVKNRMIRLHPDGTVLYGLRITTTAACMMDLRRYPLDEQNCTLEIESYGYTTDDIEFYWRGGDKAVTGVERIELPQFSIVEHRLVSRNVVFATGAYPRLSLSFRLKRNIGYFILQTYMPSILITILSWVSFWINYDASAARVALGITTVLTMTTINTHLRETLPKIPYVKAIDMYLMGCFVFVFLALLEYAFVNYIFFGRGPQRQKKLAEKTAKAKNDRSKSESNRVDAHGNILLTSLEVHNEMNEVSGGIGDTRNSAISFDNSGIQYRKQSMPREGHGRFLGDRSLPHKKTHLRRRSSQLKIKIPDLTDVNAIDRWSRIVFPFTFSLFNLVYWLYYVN
T1 sequence (P31644 whole entry): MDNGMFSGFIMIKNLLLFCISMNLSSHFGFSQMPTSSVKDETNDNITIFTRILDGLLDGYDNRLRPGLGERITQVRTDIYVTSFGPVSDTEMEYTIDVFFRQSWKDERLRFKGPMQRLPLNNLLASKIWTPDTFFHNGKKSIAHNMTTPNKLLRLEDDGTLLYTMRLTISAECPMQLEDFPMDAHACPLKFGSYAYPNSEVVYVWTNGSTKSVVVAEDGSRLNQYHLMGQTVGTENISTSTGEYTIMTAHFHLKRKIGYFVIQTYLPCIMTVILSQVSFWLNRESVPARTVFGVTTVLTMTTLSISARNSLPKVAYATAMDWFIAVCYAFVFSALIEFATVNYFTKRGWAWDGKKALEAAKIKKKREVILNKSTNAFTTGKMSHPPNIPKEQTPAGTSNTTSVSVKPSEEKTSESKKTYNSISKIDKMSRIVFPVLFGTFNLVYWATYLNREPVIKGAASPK

[2] = biological target: Voltage-gated inwardly rectifying potassium channel KCNH2 (Homo sapiens, UniProt Q12809); test: Inhibition of hERG expressed in CHO cells stably at -80 mV holding potential by automated patch clamp method; assay type: toxicity, cell-based
Voltage-gated inwardly rectifying potassium channel KCNH2, sequence (Q12809 whole entry): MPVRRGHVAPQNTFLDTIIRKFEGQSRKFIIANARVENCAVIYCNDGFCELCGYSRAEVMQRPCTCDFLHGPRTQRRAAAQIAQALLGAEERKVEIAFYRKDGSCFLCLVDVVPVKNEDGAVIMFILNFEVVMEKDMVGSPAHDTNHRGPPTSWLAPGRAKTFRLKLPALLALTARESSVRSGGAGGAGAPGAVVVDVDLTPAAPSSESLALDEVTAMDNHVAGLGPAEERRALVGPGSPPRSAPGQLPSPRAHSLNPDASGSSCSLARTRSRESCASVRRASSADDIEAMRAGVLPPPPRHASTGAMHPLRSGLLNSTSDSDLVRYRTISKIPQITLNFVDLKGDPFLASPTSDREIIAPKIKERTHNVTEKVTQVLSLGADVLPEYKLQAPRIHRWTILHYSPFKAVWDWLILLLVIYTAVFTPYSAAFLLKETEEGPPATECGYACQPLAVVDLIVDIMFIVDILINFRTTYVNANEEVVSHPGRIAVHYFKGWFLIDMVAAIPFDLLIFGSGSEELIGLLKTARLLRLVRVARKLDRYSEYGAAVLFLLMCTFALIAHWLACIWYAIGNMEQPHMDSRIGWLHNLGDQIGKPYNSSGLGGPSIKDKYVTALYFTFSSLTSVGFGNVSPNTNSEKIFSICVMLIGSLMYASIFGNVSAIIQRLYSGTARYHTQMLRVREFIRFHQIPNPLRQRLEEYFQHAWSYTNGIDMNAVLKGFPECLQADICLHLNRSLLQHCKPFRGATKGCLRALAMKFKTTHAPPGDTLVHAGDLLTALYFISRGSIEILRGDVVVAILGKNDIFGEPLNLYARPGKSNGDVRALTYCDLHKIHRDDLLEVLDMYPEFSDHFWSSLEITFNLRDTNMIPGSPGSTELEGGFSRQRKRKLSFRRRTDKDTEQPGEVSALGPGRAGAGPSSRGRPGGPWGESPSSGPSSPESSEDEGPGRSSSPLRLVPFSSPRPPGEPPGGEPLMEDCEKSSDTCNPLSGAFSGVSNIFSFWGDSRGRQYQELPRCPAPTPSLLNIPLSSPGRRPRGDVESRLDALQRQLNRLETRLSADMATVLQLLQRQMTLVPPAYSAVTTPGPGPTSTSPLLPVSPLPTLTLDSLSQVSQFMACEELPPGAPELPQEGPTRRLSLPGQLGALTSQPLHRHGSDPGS

[3] = Metabolic stability in Wistar rat liver microsomes assessed as intrinsic clearance at 2.5 uM; assay type: ADME, Microsome; details: read-out: CLH
[4] = biological target: GABA-A receptor; alpha-1/beta-3/gamma-2 (Homo sapiens) (UniProt P14867+P18507+P28472); test: Negative allosteric modulation activity at human recombinant alpha1beta3gamma2 GABAA receptor stably expressed in HEK293 cells assessed as modulation at alpha1 subunit at 10 uM by Patch clamp method; assay type: cell-based; details: filed as negative allosteric modulator
[5] = biological target: T2, GABA-A receptor; alpha-5/beta-3/gamma-2 (Homo sapiens) (UniProt P18507+P28472+P31644); test: Negative allosteric modulation activity at human recombinant alpha5beta3gamma2 GABAA receptor stably expressed in HEK293 cells assessed as modulation at alpha5 subunit at 10 uM by Patch clamp method; assay type: cell-based; details: filed as negative allosteric modulator
[6] = biological target: T2, GABA-A receptor; alpha-5/beta-3/gamma-2 (Homo sapiens); test: Negative allosteric modulation activity at human recombinant alpha5beta3gamma2 GABAA receptor stably expressed in HEK293 cells assessed as modulation at alpha5 subunit at 1 uM by Patch clamp method; assay type: cell-based; details: filed as negative allosteric modulator
[7] = Metabolic stability in human liver microsomes assessed as intrinsic clearance at 2.5 uM; assay type: ADME, Microsome; details: read-out: CLH

| SMILES | Ki [1] | IC50 [2] | microsomal CLint at 2.5 µM [3] | Activity [4] | Activity [5] | Activity [6] | microsomal CLint at 2.5 µM [7] |
| --- | --- | --- | --- | --- | --- | --- | --- |
| Cc1onc(-c2ccc(F)cc2)c1COc1ccc2c(n1)CCN(C(=O)C1CCS(=O)(=O)CC1)C2 | 3.6 nM | 2900 nM | 36 µL/min/mg | -10% | -38% | -22% | 10 µL/min/mg |
| Cc1onc(-c2ccc(F)cc2)c1COc1ccc2c(c1)CCNC2=O | 10 nM | – | 108 µL/min/mg | – | -7% | -6% | 10 µL/min/mg |
| Cc1onc(-c2ccc(F)cc2)c1COc1ccc2c(n1)CCN(C(=O)N1CCCCC1)C2 | 49 nM | 10000 nM | 359 µL/min/mg | – | – | – | 107 µL/min/mg |
| Cc1onc(-c2ccc(F)cc2)c1COc1ccc(C(=O)N2CCS(=O)(=O)CC2)cn1 [BASMISANIL] | 4.4 nM | – | 22 µL/min/mg | -2% | -25% | -24% | 7.5 µL/min/mg |
| Cc1onc(-c2ccc(F)cc2)c1COc1ccc2c(c1)OCC(=O)N2C | 14 nM | – | 381 µL/min/mg | – | – | -16% | 33 µL/min/mg |
| Cc1onc(-c2ccc(F)cc2)c1COc1ccc2c(n1)CCN(CC1CCCO1)C2=O (centres undefined) | 23 nM | 2900 nM | – | -6% | -28% | -29% | – |
| Cc1onc(-c2ccc(F)cc2)c1COc1ccc2c(n1)CCN(C(=O)CCS(C)(=O)=O)C2 | 30 nM | 4200 nM | 44 µL/min/mg | – | -35% | -16% | 9 µL/min/mg |
| Cc1onc(-c2ccc(F)cc2)c1COc1ccc2c(n1)CCN(C(=O)C1CCCO1)C2 (centres undefined) | 9.9 nM | – | 210 µL/min/mg | – | – | – | 42 µL/min/mg |
| Cc1onc(-c2ccc(F)cc2)c1COc1ccc2c(n1)CCN(C(=O)C1CCC1)C2 | 13 nM | > 10000 nM | 400 µL/min/mg | – | -26% | -7% | 57 µL/min/mg |
| CC(=O)N1CCc2nc(OCc3c(-c4ccc(F)cc4)noc3C)ccc2C1 | 1.9 nM | 5300 nM | 301 µL/min/mg | – | -16% | -19% | 74 µL/min/mg |
| Cc1onc(-c2ccc(F)cc2)c1COc1ccc2c(n1)CCN(C(C)C)C2=O | 13 nM | 4400 nM | 214 µL/min/mg | -2% | -25% | -9% | 16 µL/min/mg |
| Cc1onc(-c2ccc(F)cc2)c1COc1ccc2c(n1)CCN(C(=O)c1ccno1)C2 | 4.6 nM | 6400 nM | 245 µL/min/mg | – | -32% | -13% | 67 µL/min/mg |
| Cc1onc(-c2ccc(F)cc2)c1COc1ccc2c(n1)CCN(C(=O)N(C)C)C2 | 2.7 nM | 8300 nM | 356 µL/min/mg | – | -42% | -22% | 49 µL/min/mg |
| Cc1onc(-c2ccc(F)cc2)c1COc1ccc2c(n1)CCN(Cc1ccno1)C2=O | 9 nM | 2500 nM | – | -10% | -35% | -29% | – |
| Cc1nnn(-c2ccc(F)cc2)c1COc1ccc2c(n1)CCN(C(=O)C1CC1)C2 | 49 nM | – | 99 µL/min/mg | – | – | – | 53 µL/min/mg |
| Cc1onc(-c2ccc(F)cc2)c1COc1ccc2c(n1)CCN(C(=O)C1CC1)C2 | 8.3 nM | 5800 nM | 388 µL/min/mg | – | -34% | -4% | 71 µL/min/mg |
| Cc1onc(-c2ccc(F)cc2)c1COc1ccc2c(n1)CCN(C1CCOC1)C2=O (centres undefined) | 8 nM | 3200 nM | 139 µL/min/mg | -10% | -39% | -25% | 29 µL/min/mg |
| Cc1onc(-c2ccc(F)cc2)c1COc1ccc2c(n1)CCN(Cc1ccco1)C2=O | 21 nM | 3500 nM | 365 µL/min/mg | – | -31% | -14% | 85 µL/min/mg |
| Cc1onc(-c2ccc(F)cc2)c1COc1ccc2c(n1)CCN(CC1CCCS1(=O)=O)C2=O (centres undefined) | 23 nM | 1800 nM | – | -12% | -36% | -23% | – |
| Cc1onc(-c2ccc(F)cc2)c1COc1cc2c(cn1)C(=O)NCC2 | 0.49 nM | – | – | – | 6% | 15% | – |
| CCC(=O)N1CCc2nc(OCc3c(C)nnn3-c3ccc(F)cc3)ccc2C1 | 46 nM | – | 92 µL/min/mg | – | – | – | 48 µL/min/mg |
| Cc1onc(-c2ccc(F)cc2)c1COc1ccc2c(c1)CCC(=O)N2C | 13 nM | – | – | – | -10% | -6% | – |
| Cc1onc(-c2ccc(F)cc2)c1COc1ccc2c(n1)CCN(C(=O)N1CCCC1)C2 | 7.3 nM | 10000 nM | 279 µL/min/mg | – | -36% | -12% | 45 µL/min/mg |
| Cc1onc(-c2ccc(F)cc2)c1COc1ccc2c(n1)CCN(C(=O)N1CCOCC1)C2 | 4.6 nM | 9100 nM | 142 µL/min/mg | – | -39% | -15% | 32 µL/min/mg |
